pIC50: −log10 of the molar value.
Tests used:
iNOS = assay: Western blot for iNOS protein in stimulated primary macrophages; type: cell-based, mouse; conditions: concentrations of 1 μM or less; IFN-γ 10 ng/ml, LPS 2 ng/ml, 12 h
Description: (§1) FIG. 14(A) illustrates Western blots; primary mouse macrophages; IFN-γ, 10 ng/ml; LPS, 2 ng/ml were added to cultures together with triterpenoids or dexamethasone (concentrations shown as […]); cells were harvested at 12 h. FIG. 14(B) illustrates Northern blots, RAW 264.7 macrophage-like cell line. IFN-γ, 10 ng/ml; LPS, 1 ng/ml; TNF-α, 10 ng/ml, were added to cultures together with CDDO or dexamethasone. RNA prepared after 12 h; GAPDH used as a loading control. FIG. 14(C) illustrates suppression of production of NO and PGEF in primary macrophages. For NO studies, cells were treated with IFN-γ, 10 ng/ml, together with CDDO (M), dexamethasone (O), TP-82 (□), or oleanolic acid (A). After 48 h, supernatants were analyzed for NO by the Griess reaction. For PGEF studies, cells were treated with IFN-γ, 5 ng/ml, and LPS, 5 ng/ml, together with the same set of inhibitors. After 48 h, PGE was measured in supernatants by immunoassay. Control values (no inhibition) for NO and PGE2 were 4.7 nmol/[…] and 2.2 ng/ml/2×10^5 cells, respectively. FIGS. (14D) and (14E) illustrate (human colon myofibroblasts) ^18Co cells grown in MEM/10% FBS; other methods are the same as reported above for macrophages. FIG. 14(D) illustrates Northern blots showing dose-response for suppression of COX-2 mRNA after induction with IL-1β (30 pg/ml). CDDO was added together with IL-1. […]

[1] = tested on: NB4 promyelocytic leukemia line; assay: Differentiation of leukemia cells (data not shown); type: cell-based, human; conditions: by itself or in combination with TGF-β1
[2] = tested on: PGE2 production in 18Co cells; assay: PGE2 in culture medium of IL-1β-treated 18Co cells; type: cell-based, human; conditions: IL-1β 30 pg/ml
Description: as §1

[3] = tested on: NT2/D1 embryonal carcinoma cells; assay: Inhibition of cell proliferation (3H-thymidine incorporation); type: cell-based, human; conditions: 3 or 4 days, 3H-thymidine 2 h
Description: (§2) All cells were obtained from ATCC, except as noted. They were grown under standard conditions in either DMEM, DMEM/F 12, or RPMI 1640 media plus 5-10% FBS. CDDO, over the dose range 10^−6 to 10^−10 M, was added to cultures at the time of seeding. Three or 4 days later, cells were treated with ^3H-thymidine for 2 h (12 h in the case of leukemia cells), and then incorporation was measured. “ER” means estrogen receptor.

[4] = tested on: 21-MT-2 ER negative breast carcinoma cells; assay: as above; type: cell-based, human; conditions: 3 or 4 days, 3H-thymidine 2 h
Description: as §2

[5] = tested on: AML193 acute myelocytic leukemia cells; assay: as above; type: cell-based, human; conditions: 3 or 4 days, 3H-thymidine 12 h
Description: as §2

[6] = tested on: KG-1 acute myeloid leukemia cells; assay: as above; type: cell-based, human; conditions: 3 or 4 days, 3H-thymidine 12 h
Description: as §2

[7] = tested on: MCF-7 ER positive breast carcinoma cells; assay: as above; type: cell-based, human; conditions: 3 or 4 days, 3H-thymidine 2 h
Description: as §2

[8] = tested on: NB4 promyelocytic leukemia cells; assay: as above; type: cell-based, human; conditions: 3 or 4 days, 3H-thymidine 12 h
Description: as §2

A2058 melanoma cells = assay: as above; type: cell-based, human; conditions: 3 or 4 days, 3H-thymidine 2 h
Description: as §2

[9] = tested on: 21-NT ER negative breast carcinoma cells; assay: as above; type: cell-based, human; conditions: 3 or 4 days, 3H-thymidine 2 h
Description: as §2

[10] = tested on: MDA-MB-231 ER negative breast carcinoma cells; assay: as above; type: cell-based, human; conditions: 3 or 4 days, 3H-thymidine 2 h
Description: as §2

[11] = tested on: MCF-7 breast carcinoma cells; assay: Suppression of thymidine incorporation, dose-response (FIG. 13); type: cell-based, human; conditions: MCF-7 with 17-β-estradiol, 72 h; oleanolic acid statement at concentrations of 1 μM or less
Description: Inhibitors of cell proliferation are known to be useful chemopreventive and chemotherapeutic agents. CDDO was tested against a wide variety of cells derived from highly aggressive leukemias and carcinomas, as well as from non-neoplastic tissues. NRP-152 cells were grown as described in Danielpour et al., 1994. MCF-7 cells were grown in phenol red-free RPMI 1640/10% charcoal-stripped FBS with added 17-β-estradiol (10 μM). Triterpenoids were added at the time of plating, and 72 h later ^3H-thymidine (1 μCi/well) was added for the final 2 h of incubation. Incorporation of thymidine was measured after cells were precipitated with TCA (10%), washed, and solubilized. The symbols used in FIG. 13 are CDDO, ▪; TP-82, ◯; and oleanolic acid; ●.

## CC1(C)CC[C@]2(C(=O)O)CC[C@]3(C)[C@H](C(=O)C=C4[C@@]5(C)C=C(C#N)C(=O)C(C)(C)[C@@H]5CC[C@]43C)[C@@H]2C1 [Compound 6, 2-cyano-3,12-dioxoolean-1,9-dien-28-oic acid]
iNOS
  expression of iNOS protein: blocked expression
[1]
  differentiative effects: differentiative effects
[2]
  PGE2 levels in the culture medium: lowering of PGE2 levels
[3]
  pIC50: 7.00
[4]
  pIC50: 6.52
[5]
  pIC50: 6.40
[6]
  pIC50: 6.70
[7]
  pIC50: 7.52
[8]
  pIC50: 7.40
A2058 melanoma cells
  pIC50: 6.70
[9]
  pIC50: 6.00
[10]
  pIC50: 6.00
[11]
  suppressing thymidine incorporation: highly active in the nanomolar range

— patent publication US20080234368A9, “Therapeutic compositions and methods of use” (Trustees of Dartmouth College, priority 1998, published 2008)
